Laboratory results reported in publication PMC8018184, “Evaluation of the Pharmacophoric Role of the O–O Bond in Synthetic Antileishmanial Compounds: Comparison between 1,2-Dioxanes and Tetrahydropyrans” (Journal of Medicinal Chemistry, 2020).

Columns and labels:
[1] = system: intramacrophage amastigotes of L. donovani; assay: Amastigote growth inhibition assay in infected THP-1 cells (Giemsa, infectivity index); type: cell-based, Leishmania donovani; settings: for IC50: Leishmania donovani, intracellular amastigotes in THP-1, 72 h, read-out: IC50 against amastigotes of L. donovani
Experimental: To evaluate the efficacy of the compounds on the intracellular form of L. donovani, human acute monocytic leukemia cell line (THP-1) was infected with L. donovani promastigotes. Cells were harvested and seeded in a 96-well plate (10^5 cells mL^–1) in the complete RPMI 1640 medium, and PMA (0.1 μM, Cayman Chemical Company, Ann Arbor, Michigan, USA) was added for obtaining maturation and cell adherence. Cells were incubated at 37 °C in a 5% CO2 incubator. After 48 h, the medium was replaced with the fresh medium containing stationary-phase promastigotes that were then phagocyted by monocytic cells and transformed into intracellular amastigotes. After 24 h of incubation, newly synthesized compounds were added and the plates were incubated at 37 °C in a 5% CO2 incubator for 72 h. After incubation, wells were washed, fixed, and stained with Giemsa. Staining was detected using a Nikon Eclipse E200 light microscope (Nikon, Tokyo, Japan). The infectivity index (% of infected macrophages × average number of amastigotes per macrophage) was determined by counting at least 100 cells in duplicate cultures.

[2] = Cytotoxicity test on THP-1 cells (alamarBlue); type: cell-based; settings: human, THP-1 cells (acute monocytic leukemia cell line); CSV supplement; read-out: CC50 against human acute monocytic leukemia cell line (THP-1)
Experimental: Vero cells (kidney of African green monkey epithelial cell line) were cultured at 37 °C in the MEM liquid medium supplemented with 10% FBS (EuroClone SpA), 1% levoglutamine (EuroClone SpA), and 1% penicillin–streptomycin (EuroClone SpA). THP-1 cells (human leukemia monocytic cell line) were cultured at 37 °C in the RPMI 1640 (EuroClone SpA) liquid medium supplemented with 10% FBS (EuroClone SpA), 1% levoglutamine (EuroClone SpA), 1% penicillin–streptomycin, and mercaptoethanol (Gibco) 50 μM.
The cytotoxicity of the compounds was determined using mammalian kidney epithelial cells (Vero cell line) and human acute monocytic leukemia cell line (THP-1). Cells were seeded (10^5 cells mL^–1) on 96-well plates with the complete MEM medium and incubated with test compounds at 37 °C in a 5% CO2 incubator. After 72 h of incubation, 20 μL of the alamarBlue reagent was added to each well and incubated at 37 °C for 24 h. Reduction of resazurin to resorufin was evaluated after 24 h by absorbance measurement at the Multiskan ascent plate reader (Thermo Fisher Scientific Inc.,) at 550 and 630 nm. […] Each experiment was performed in duplicate.
Cytotoxicity in THP-1 cell line
We performed additional cytotoxicity tests employing THP-1 cell line. We also calculated the
corresponding selectivity indexes, as the ratio between CC50 of THP-1 cell line and IC50 on amastigotes
THP-1 cells than on VERO cells; thus showing a not significant variance of selectivity index.
Table S3. Inhibitory activity of tetrahydropyrans 3 and endoperoxides 2 against amastigotes of L.
donovani, cytotoxicity in human acute monocytic leukemia cell line (THP-1) and selectivity index (SI).
Tetrahydropyran IC50 CC50 Endoperoxide IC50 CC50
a (µM)b (µM)c a (µM)b (µM)c
a Compounds tested as racemates. b IC50 represents the concentration of a compound that causes 50% growth inhibition.
Results represent the mean (± standard deviation, SD) of three independent experiments performed in duplicate. c CC50
represents 50% cytotoxic concentration on THP-1 cells. d Selectivity index (SI) = CC50/IC50. […]

[3] = system: L. donovani promastigotes; assay: Promastigote growth inhibition in the presence of an iron chelator (DFO or DFP), isobologram; type: cell-based, Leishmania donovani; settings: for Interaction with the iron chelator DFP (isobologram, FIC): FIC values > 0.5 and < 4; for IC50: Leishmania donovani, no DFO, read-out: IC50 against promastigotes, absence of DFO; for Interaction with the iron chelator DFO (isobologram, ΣFIC): synergism <0.5, antagonism >4.0, else additivity
Experimental: At first, we determined IC50 and CC50 values of the iron chelator DFO (187 and >400 μM, respectively). Then, the effect of the iron chelator presence on the bioactivity of the two compounds was studied by coincubating 2a and 3a with DFO at different concentrations. The variation of IC50 of the compounds in relation to the different doses of DFO was determined by the alamarBlue assay (Table 3), and the isobole technique was employed to depict the interactions of 2a and 3a with DFO (Figure 6).
The isobole technique was used for depicting synergistic or antagonistic interaction between the iron chelator and the two compounds on the parasite growth (Figure 6). Combinations are expressed as the sum of the fractional inhibitory concentrations (ΣFIC), and FIC values are defined as synergism (<0.5), antagonism (>4.0), and additivity (no interaction). The strength of synergism (or antagonism) is indicated by the degree of deviation from the line of additivity.
[…]. Each compound was added using a concentration range including the IC50 of each compound. Each experiment was performed in duplicate. The viability of the parasites was determined by the alamarBlue assay. The fractional inhibitory concentration (FIC; FIC = IC50 of the drug in the combination/IC50 of the drug when tested alone) of each compound was calculated and plotted as an isobologram.

[4] = system: ROS in L. donovani promastigotes; assay: Evaluation of intracellular ROS levels (H2DCFDA fluorescence); type: cell-based, Leishmania donovani; settings: for Intracellular ROS levels compared to negative control (untreated promastigotes): compound at its IC50, 24 h, H2DCFDA; for ROS production compared to positive controls: compound at its IC50, H2O2 20 μM, miltefosine 22 μM
Experimental: We evaluated the ability of our synthetic compounds to generate reactive oxygen species (ROS) in L. donovani promastigotes. We selected the endoperoxide 2a and the tetrahydropyran 3a as model substrates, which were administered to the parasites in the presence of 2,7-dichlorodihydrofluorescein diacetate (H2DCFDA), a live-cell-permeable dye, which is oxidized by ROS, providing a fluorescent compound (DCF) (see Experimental Section for details).[103] Therefore, the resultant fluorescence is a direct measure of the amount of ROS generated.
To monitor the effect of the compounds on the production of ROS in promastigotes of L. donovani, an oxidant-sensitive green fluorescent dye (2,7-dichlorofluorescein diacetate, H2DCFDA) was used. […] Subsequently, parasitic cells were washed in PBS (pH 7.4), loaded with 10 μM permeant probe H2DCFDA (Sigma, St. Louis, MO, USA), and incubated in the dark for 35 min at 26 °C.[103] H2O2 (20 μM)[124] and miltefosine (22 μM)[125] were used as positive controls. Each experiment was performed in triplicate. Reactive oxygen species (ROS) production was measured as an increase in fluorescence caused by the conversion of nonfluorescent dye to highly fluorescent 2,7-dichlorofluorescein, with an excitation wavelength of 488 nm and an emission wavelength of 530 nm. Plates were read by employing a fluorescence microplate reader Varioskan Flash (Thermo Fisher Scientific Inc.).

[5] = system: L. donovani promastigotes (MHOM/NP/02/BPK282/0cl4); assay: Promastigote growth inhibition assay (alamarBlue); type: cell-based; settings: Leishmania donovani, HOMEM with 10% FBS
[6] = THP-1 CC50 / IC50 on amastigotes
[7] = Vero CC50 / IC50 on amastigotes

SMILES	IC50 [1]	Selectivity index (SI) = CC50/IC50 [1, 6]	Selectivity index (SI) = CC50/IC50 [1, 7]	CC50 at 72 h [2]	Interaction with the iron chelator DFP (isobologram, FIC) [3]	IC50 [3]	Interaction with the iron chelator DFO (isobologram, ΣFIC) [3]	Intracellular ROS levels compared to negative control (untreated promastigotes) [4]	ROS production compared to positive controls [4]	IC50 [5]
CCCCC1(CCCC)CO[C@@](C)(OC)[C@@H](CNCCCn2ccnc2)C1 (racemic) [3a, N-((5,5-Dibutyl-2-methoxy-2-methyltetrahydro-2H-pyran-3-yl)methyl)-3-(1H-imidazol-1-yl)propan-1-amine]	3.4 ± 0.6 µM	7.6	10.3	26 µM	no antagonism or synergism	3.4 ± 0.4 µM	additive effects	increase in the intracellular ROS levels	higher ROS production when compared to H2O2	1.9 µM
CCCCC1(CCCC)C[C@H](CNCCCn2ccnc2)[C@](C)(OC)OO1 [2a]	12.2 ± 1.2 µM	7.0	5.9	86 µM	no antagonism or synergism	7.5 ± 1.7 µM	additive effects	increase in the intracellular ROS levels	lower fluorescence intensity when compared to H2O2 and miltefosine	2.7 µM
